Experiment [1] concerns the target PD-L1 His protein / PD-1 Fc protein (Homo sapiens (Human), UniProt Q9NZQ7). Put plainly: HTRF Assay (PD-1/PD-L1 interaction). Conditions: PD-L1 His 6 nM, PD-1 Fc 6 nM. The experiment is classed as binding.
The next experiment has as its target human PD-L1 (Homo sapiens (Human), UniProt Q9NZQ7). Kind of experiment: T cell activation luciferase reporter cell culture system (T Cell Activation Assay). To be noted: luciferase reporter assay; PD-L1 aAPC/CHO-K1 cells with PD-1 effector Jurkat T cells. The experiment is classed as cell-based.

Sequence of PD-L1 His protein / PD-1 Fc protein (Q9NZQ7 19-238): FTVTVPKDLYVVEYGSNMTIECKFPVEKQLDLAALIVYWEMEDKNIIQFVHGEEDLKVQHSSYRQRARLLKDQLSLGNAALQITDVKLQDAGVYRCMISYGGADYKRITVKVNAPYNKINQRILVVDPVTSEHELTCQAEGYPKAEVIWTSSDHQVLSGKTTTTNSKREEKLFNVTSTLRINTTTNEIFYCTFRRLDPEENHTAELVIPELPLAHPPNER
Sequence of human PD-L1 (Q9NZQ7 19-290): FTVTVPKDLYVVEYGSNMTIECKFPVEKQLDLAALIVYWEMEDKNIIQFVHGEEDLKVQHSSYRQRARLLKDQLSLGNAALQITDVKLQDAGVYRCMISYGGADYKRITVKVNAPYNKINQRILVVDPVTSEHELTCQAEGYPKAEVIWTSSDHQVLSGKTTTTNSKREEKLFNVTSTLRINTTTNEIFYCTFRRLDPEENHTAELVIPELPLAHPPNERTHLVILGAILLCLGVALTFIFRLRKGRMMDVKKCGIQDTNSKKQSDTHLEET

The molecule `COc1cc(-c2nccc(-c3cccc(-c4ccc(CNC5CC6(CCNC6=O)C5)c(OC)n4)c3Cl)c2Cl)ccc1CNC1CC2(CCNC2=O)C1` (stereo not drawn) [Example 302, 2-((4-(3-Chloro-4-(2-chloro-3-(6-methoxy-5-(((5-oxo-6-azaspiro[3.4]octan-2-yl)amino)methyl)pyridin-2-yl)phenyl)pyridin-2-yl)-2-methoxybenzyl)amino)-6-azaspiro[3.4]octan-5-one] yielded an IC50 in experiment [1] of 1.11 nM. The midpoint of the response on human PD-L1, the EC50, lay at 23.5 nM.
Take `COc1cc(-c2nccc(-c3cccc(-c4ccc(CNCCN5CCCC5=O)c(OC)n4)c3Cl)c2Cl)ccc1CNCCN1CCCC1=O` [Example 303, 1-(2-(((6-(2-Chloro-3-(3-chloro-2-(3-methoxy-4-(((2-(2-oxopyrrolidin-1-yl)ethyl)amino)methyl)phenyl)pyridin-4-yl)phenyl)-2-methoxypyridin-3-yl)methyl)amino)ethyl)pyrrolidin-2-one]: half-maximal inhibition in experiment [1] (IC50) required 2.83 nM. On human PD-L1, this molecule yielded an EC50 of 30.8 nM.
Taken in the same sequence, the figures for `COc1nc(-c2ccnc(-c3cccc4c3CC[C@@H]4Nc3nc(OC)c(CN4CC5(CNC(=O)C5)C4)nc3C(F)(F)F)c2Cl)ccc1CN1CC2(CNC(=O)C2)C1` [Example 304, (S)-2-((3′-chloro-6-methoxy-2′-(1-((6-methoxy-5-((7-oxo-2,6-diazaspiro[3.4]octan-2-yl)methyl)-3-(trifluoromethyl)pyrazin-2-yl)amino)-2,3-dihydro-1H-inden-4-yl)-[2,4′-bipyridin]-5-yl)methyl)-2,6-diazaspiro[3.4]octan-7-one] were 6.51 nM and 197 nM.
In the same order, the values of `COc1nc(-c2ccnc(-c3cccc4c3CC[C@@H]4Nc3nc(OC)c(CN4CC5(C4)CN(C(C)=O)C5)nc3C(F)(F)F)c2Cl)ccc1CN1CC2(C1)CN(C(C)=O)C2` [Example 305, (S)-1-(6-((5-((4-(5-((6-Acetyl-2,6-diazaspiro[3.3]heptan-2-yl)methyl)-3′-chloro-6-methoxy-[2,4′-bipyridin]-2′-yl)-2,3-dihydro-1H-inden-1-yl)amino)-3-methoxy-6-(trifluoromethyl)pyrazin-2-yl)methyl)-2,6-diazaspiro[3.3]heptan-2-yl)ethan-1-one] are 4.96 nM and ≥ 10000 nM.
In the same order, the values of `COc1cc(-c2nccc(-c3cccc4c3CC[C@@H]4Oc3nc(OC)c(CN4CC5(CNC(=O)C5)C4)cc3C(F)(F)F)c2Cl)cc(F)c1CN1CC2(CNC(=O)C2)C1` [Example 306, (S)-2-(4-(3-chloro-4-(1-((6-methoxy-5-((7-oxo-2,6-diazaspiro[3.4]octan-2-yl)methyl)-3-(trifluoromethyl)pyridin-2-yl)oxy)-2,3-dihydro-1H-inden-4-yl)pyridin-2-yl)-2-fluoro-6-methoxybenzyl)-2,6-diazaspiro[3.4]octan-7-one] are 0.76 nM and 361 nM.
In turn, `COc1nc(-c2cccc(-c3ccnc(-c4cc(Cl)c5c(c4)CCN(CC4COC4)C5)c3Cl)c2Cl)ccc1CNC[C@@H]1CCC(=O)N1` [Example 307, (S)-5-((((6-(2-Chloro-3-(3-chloro-2-(8-chloro-2-(oxetan-3-ylmethyl)-1,2,3,4-tetrahydroisoquinolin-6-yl)pyridin-4-yl)phenyl)-2-methoxypyridin-3-yl)methyl)amino)methyl)pyrrolidin-2-one] came in with an IC50 in experiment [1] of 1.41 nM. The same molecule yielded an EC50 at human PD-L1 of 186 nM.
`COc1nc(-c2cccc(-c3ccnc(-c4ccc5c(CN6CC7(C6)CN(C(C)=O)C7)nn(C)c5c4)c3Cl)c2Cl)ccc1CNC[C@@H]1CCC(=O)N1` [Example 308, (S)-5-((((6-(3-(2-(3-((6-Acetyl-2,6-diazaspiro[3.3]heptan-2-yl)methyl)-1-methyl-1H-indazol-6-yl)-3-chloropyridin-4-yl)-2-chlorophenyl)-2-methoxypyridin-3-yl)methyl)amino)methyl)pyrrolidin-2-one]: the IC50 in experiment [1] turned out to be 0.95 nM. The response on human PD-L1 was half-maximal at 24.1 nM (EC50).
For `COc1nc(-c2cccc(-c3ccnc(-c4ccc5c(CN6CC[C@H](C(=O)O)C6)nn(C)c5c4)c3Cl)c2Cl)ccc1CNC[C@@H]1CCC(=O)N1` [Example 309, (S)-1-((6-(3-Chloro-4-(2-chloro-3-(6-methoxy-5-(((((S)-5-oxopyrrolidin-2-yl)methyl)amino)methyl)pyridin-2-yl)phenyl)pyridin-2-yl)-1-methyl-1H-indazol-3-yl)methyl)pyrrolidine-3-carboxylic acid], the IC50 in experiment [1] worked out at 0.3 nM. Moreover, the 50% effective concentration (EC50) at human PD-L1 worked out at 75 nM.
On to `COc1nc(-c2cccc(-c3ccnc(-c4cc(OC)c5nc(CNC[C@@H]6CCC(=O)N6)cn5c4)c3Cl)c2Cl)ccc1CNC[C@@H]1CCC(=O)N1` [Example 310, (S)-5-((((6-(2-Chloro-3-(3-chloro-2-(8-methoxy-2-(((((S)-5-oxopyrrolidin-2-yl)methyl)amino)methyl)imidazo[1,2-a]pyridin-6-yl)pyridin-4-yl)phenyl)-2-methoxypyridin-3-yl)methyl)amino)methyl)pyrrolidin-2-one], for which inhibition in experiment [1] was half-maximal at 1.8 nM (IC50). For the same molecule, a half-maximal response on human PD-L1 (EC50) required 90.5 nM.
In the same order, the values of `COc1cc(-c2nccc(-c3cccc(-c4cnc(CNC5CCN(C(C)=O)CC5)c(OC)n4)c3Cl)c2Cl)ccc1CNC1CCN(C(C)=O)CC1` [Example 311, 1-(4-(((5-(3-(2-(4-(((1-Acetylpiperidin-4-yl)amino)methyl)-3-methoxyphenyl)-3-chloropyridin-4-yl)-2-chlorophenyl)-3-methoxypyrazin-2-yl)methyl)amino)piperidin-1-yl)ethan-1-one] are 0.907 nM and 152 nM.
Taken in the same sequence, the figures for `COc1nc(-c2cccc(-c3ccnc(-c4cc(OC)c5nc(CN[C@H]6C[C@](C)(O)C6)cn5c4)c3Cl)c2Cl)ccc1CNC[C@@H]1CCC(=O)N1` [Example 312, (S)-5-((((6-(2-chloro-3-(3-chloro-2-(2-((((1r,3r)-3-hydroxy-3-methylcyclobutyl)amino)methyl)-8-methoxyimidazo[1,2-a]pyridin-6-yl)pyridin-4-yl)phenyl)-2-methoxypyridin-3-yl)methyl)amino)methyl)pyrrolidin-2-one] were 0.813 nM and 178 nM.
In experiment [1], `COc1nc(-c2cccc(-c3ccnc(-c4cc(OC)c5nc(CN6CC7(CNC(=O)C7)C6)cn5c4)c3Cl)c2Cl)ccc1CNC[C@@H]1CCC(=O)N1` [Example 314, (S)-2-((6-(3-Chloro-4-(2-chloro-3-(6-methoxy-5-((((5-oxopyrrolidin-2-yl)methyl)amino)methyl)pyridin-2-yl)phenyl)pyridin-2-yl)-8-methoxyimidazo[1,2-a]pyridin-2-yl)methyl)-2,6-diazaspiro[3.4]octan-7-one] had an IC50 of 1.63 nM. In addition, at human PD-L1, it took 69.2 nM to reach a half-maximal effect (EC50).
Regarding `COc1cc(-c2nccc(-c3cccc(-c4ccc(CNC5CCN(C(C)=O)CC5)c(OC)n4)c3Cl)c2Cl)ccc1CN(C)C1CCN(C(C)=O)CC1` [Example 315, 1-(4-(((6-(3-(2-(4-(((1-acetylpiperidin-4-yl)(methyl)amino)methyl)-3-methoxyphenyl)-3-chloropyridin-4-yl)-2-chlorophenyl)-2-methoxypyridin-3-yl)methyl)amino)piperidin-1-yl)ethan-1-one], in experiment [1], the IC50 turned out to be 1.54 nM. Further, the response at human PD-L1 was half-maximal at 28.9 nM (EC50).
Taken in the same sequence, the figures for `COc1cc(-c2nccc(-c3cccc(-c4ccc(CNC5CCN(C(=O)C6CC6)CC5)c(OC)n4)c3Cl)c2Cl)cc(F)c1CNC1CCN(C(=O)C2CC2)CC1` [Example 316, (4-(((6-(2-Chloro-3-(3-chloro-2-(4-(((1-(cyclopropanecarbonyl)piperidin-4-yl)amino)methyl)-3-fluoro-5-methoxyphenyl)pyridin-4-yl)phenyl)-2-methoxypyridin-3-yl)methyl)amino)piperidin-1-yl)(cyclopropyl)methanone] were 3.45 nM and 45.7 nM.
In the same order, the values of `COc1nc(-c2cccc(-c3ccnc(-c4cc(OC)c5nc(CN6CC(C)(O)C6)cn5c4)c3Cl)c2Cl)ccc1CNC[C@@H]1CCC(=O)N1` [Example 317, (S)-5-((((6-(2-Chloro-3-(3-chloro-2-(2-((3-hydroxy-3-methylazetidin-1-yl)methyl)-8-methoxyimidazo[1,2-a]pyridin-6-yl)pyridin-4-yl)phenyl)-2-methoxypyridin-3-yl)methyl)amino)methyl)pyrrolidin-2-one] are 1.94 nM and 62.6 nM.
In the same order, the values of `COc1nc(-c2cccc(-c3ccnc(-c4cc(OC)c5nc(CNC6CCN(C(C)=O)CC6)cn5c4)c3Cl)c2Cl)ccc1CNC[C@@H]1CCC(=O)N1` [Example 318, (S)-5-((((6-(3-(2-(2-(((1-Acetylpiperidin-4-yl)amino)methyl)-8-methoxyimidazo[1,2-a]pyridin-6-yl)-3-chloropyridin-4-yl)-2-chlorophenyl)-2-methoxypyridin-3-yl)methyl)amino)methyl)pyrrolidin-2-one] are 1.8 nM and 31.5 nM.
`COc1nc(-c2cccc(-c3ccnc(-c4cc(OC)c5nc(CN6CC7(C6)CN(C(C)=O)C7)cn5c4)c3Cl)c2Cl)ccc1CNC[C@@H]1CCC(=O)N1` [Example 319, (S)-5-((((6-(3-(2-(2-((6-Acetyl-2,6-diazaspiro[3.3]heptan-2-yl)methyl)-8-methoxyimidazo[1,2-a]pyridin-6-yl)-3-chloropyridin-4-yl)-2-chlorophenyl)-2-methoxypyridin-3-yl)methyl)amino)methyl)pyrrolidin-2-one] yielded an IC50 in experiment [1] of 0.767 nM. On human PD-L1, the EC50 was found to be 38.3 nM.
Taken in the same sequence, the figures for `COc1nc(-c2cccc(-c3ccnc(-c4cc(OC)c5nc(CN6CC7(CCC(=O)N7)C6)cn5c4)c3Cl)c2Cl)ccc1CNC[C@@H]1CCC(=O)N1` [Example 320, (S)-2-((6-(3-Chloro-4-(2-chloro-3-(6-methoxy-5-((((5-oxopyrrolidin-2-yl)methyl)amino)methyl)pyridin-2-yl)phenyl)pyridin-2-yl)-8-methoxyimidazo[1,2-a]pyridin-2-yl)methyl)-2,5-diazaspiro[3.4]octan-6-one] were 0.231 nM and 51.2 nM.
